From patent US8283377B2, “Method for inhibiting blood vessel stenosis” (China Medical University, priority 2011, dated 2012)
Several values for one entry are separate records, joined by “and”; a condition that tells them apart may be missing. Identical values can stand only once. Marks after values point to notes of the source that are not given here.

Key:
[1] = system: carotid artery of Sprague-Dawley (SD) rats after balloon catheter injury; test: Animal test - treatment of carotid artery injury induced blood vessel stenosis; format: in vivo, rat; details: for Blood vessel neointimal layer area /middle layer area (intima/media ratio) / Blood vessel neointimal layer area: day 14
Procedure: Sprague-Dawley (SD) rats (purchased from BioLasco Taiwan Co. Ltd, Taipei) were used in the present experiment to carry out the animal test. The rats were bred in an environment with 12 hours light, followed by 12 hours dark, and fed to 10-weeks old (body weight: about 300 to 400 g). Then, carotid artery injury surgery and the following experiments were carried out. The present experiment followed the Animal Protection Act and the provisions of Animal Management Committee of National Dong Hwa University.
The SD rat was anesthetized by 320 mg/kg-body-weight chloral hydrate (purchased from Fluka), and then the abdominal area was faced upwards, and the limbs were fixed with a breathable tape on a surgery plate. The Casscells' method (Casscells et al., Migration of smooth muscle and endothelial cells. Critical events in restenosis, Circulation, 1992; 86; 723-729, which is incorporated hereinto by reference) was used to carry out the carotid artery injury surgery. First, the skin of the rat was cut open with a scissor from the midline of the neck jaw to the chest area, and then the connective tissue at the right side of the rat neck was separated from the muscle layer to expose the blood vessel next to the trachea, and the blood vessel is the common carotid artery. The right side common carotid artery, internal carotid artery, and external carotid artery were separated, and the connective tissue at the junction of these three blood vessels was completely striped. Then, the external carotid artery was tied up with a 2/0 sized silk thread, and the common carotid artery was clipped by a vascular clip to avoid heavy bleeding. A gap was made by cutting the external carotid artery with a microscopic scissor, and a balloon catheter (Cather French Size 2F, purchased from Edwards Lifescience) was implanted through the gap. The balloon catheter was inserted 5 cm into the common carotid artery, and 0.2 mL of a physiological saline solution was filled into the balloon catheter to expend the catheter. Then, the balloon catheter was pulled out to the gap of the external carotid artery, and the physiological saline solution was drawn out from the balloon catheter. After the common carotid artery was injured repeatedly for three times by this method, the gap of the external carotid artery and the bifurcation point between the external carotid artery and the common carotid artery were tied up with a 2/0 sized silk thread. Finally, the wound of the rat was stitched up and spread with an iodine solution. After the rat woke up, the carotid artery injury surgery was completed.
Two weeks after the carotid artery injury surgery, the rat was sacrificed with excess chloral hydrate (640 mg/kg-body weight). PBS (300 mL) was injected into the left ventricle of the rat using the heart perfusion method and flowed out from the right ventricle through systemic circulation. Neutral formalin (200 mL, 10 vol %) was injected into the left ventricle of the rat to immobilize the whole body tissue. The common carotid artery immobilized by formalin was removed and soaked in a 10 vol % neutral formalin solution.
The common carotid artery was divided into four sections and labeled with A, B, C, and D from the head to the heart. Each section was 4 mm in length and was placed in an embedding cassette, and then an automatic tissue processor (purchased from Sakura) was used to process the tissue. The process procedure was 1 hour in a 10 vol % formalin solution, 30 minutes in water, 1 hour in 80 vol % alcohol, 3 hours in 95 vol % alcohol, 4 hours in 100 vol % alcohol, 3 hours in xylene, and 3 hours in paraffin. After the tissue process procedure was completed, the tissue was wrapped by paraffin, and the tissue biopsy was carried out by a slicer (purchased from Lica) with a cut of 8 μm thickness. Immunohistochemical stain and H&E stain on the biopsy were carried out. […]

[2] = system: rat aortic smooth muscle cell line A7r5; test: Inhibiting proliferation of smooth muscle cells - cell counting analysis (trypan blue); format: cell-based; details: 48 hours
Procedure: (§1) A rat aortic smooth muscle cell line A7r5 was used to carry out the present experiment. A Dulbecco's modified Eagle's medium (DMEM, purchased from Biowest) was used as a general culture medium. The medium was added with 4 mM of L-glutamine, 1.5 g/L sodium bicarbonate, 4.5 g/L glucose, and 10 wt % fetal bovine serum. The A7r5 smooth muscle cells were cultured in a 75 cm^2 petri dish, and 12 mL of the culture medium was added thereinto. The cells were placed and incubated in a cell incubator containing 5 vol % of carbon dioxide at 37° C. After the dish was fully covered by the grown cells, the medium was replaced once every 3 days, and 0.5 wt % trypsin was used for subculture.
(§2) In addition, a culture medium containing n-butylidenephthalide was prepared. Herein, n-butylidenephthalide was dissolved in dimethyl sulfoxide (purchased from Sigma), and solutions with n-butylidenephthalide concentrations of 0, 25, 50, 100, 150, and 200 mg/mL were prepared, and the solutions were stored at −20° C. When used to prepare a medium, the solutions were diluted by 1000 times with the general culture medium used for incubating smooth muscle cells to prepare a culture medium containing 0, 25, 50, 100, 150, or 200 μg/mL of n-butylidenephthalide.
The rat aortic smooth muscle cell line A7r5 was inoculated in a 6-hole culture dish (density: 1×10^5 cells/hole). After the cells were cultured for 24 hours, the medium was replaced by a medium containing n-butylidenephthalide with a concentration of 0, 25, 50, 100, 150, or 200 μg/mL to culture the smooth muscle cells. After another 48 hours, the cells were observed by an inverted microscope, and the cells were detached by 0.5 wt % trypsin. Then, 20 μL of the cell suspension was taken and mixed evenly with 20 μL trypan blue, and finally, 10 μL of the mixture was collected and added onto a blood cell counting plate. The cell number was counted by a microscope under 100× magnifications to evaluate the inhibition of n-butylidenephthalide on the growth of the smooth muscle cells.

[3] = system: rat aortic smooth muscle cell line A7r5; test: Inhibiting proliferation of smooth muscle cells - cell cycle analysis (propidium iodide flow cytometry); format: cell-based; details: 24 hours
Procedure: as §1, §2
An inhibition test on the cell cycle progression of smooth muscle cells was carried out. Because the cellular DNA content is different in each cell cycle phase, the amount of DNA can be used to evaluate the cell cycle phase in which the cell proceeds. In another aspect, because propidium iodide can bind to DNA, and it can emit red fluorescent light with a wavelength of 625 nm after being excited by light with a wavelength of 488 nm, thus, propidium iodide was used as a fluorescent staining agent in the present experiment, and the red fluorescent intensity represented the amount of DNA, thereby determining which phase the cell was in during the cell cycle.
The rat aortic smooth muscle cell line A7r5 was inoculated in a 6-hole culture dish (density: 1×10^5 cells/hole). After the cells were cultured for 24 hours, the medium was replaced by a medium containing n-butylidenephthalide with a concentration of 0, 25, or 50 μg/mL to culture the smooth muscle cells. After another 24 hours, the cells were fixed with 70 vol % alcohol, and a phosphate buffer solution (PBS) was used to rinse the cells. Finally, propidium iodide (a solution containing 955 μL 1×PBS, 5 μL Triton X-100 (0.5 wt %, purchased from Sigma), 20 μL RNase A (10 mg/mL, purchased from Sigma), and 20 μL propidium iodide (1 mg/mL, purchased from Sigma)) was used to stain the cells for 15 minutes. Then, a flow cytometry (FC500, Beckman) was used to scan and collect 10,000 cells. Multicycle for Windows software (Phoenix Flow Systems) was used to analyze cellular cell cycle.

SMILES: CCC/C=C1\OC(=O)c2ccccc21 [n-butylidenephthalide]
- inhibition of blood vessel stenosis (in words) ([1]; 60 mg/kg-body weight): no significant inhibition effect
- proportion of the rats whose increased area of the blood vessel neointimal layer was under 1×10^5 μm^2 ([1]; 60 mg/kg-body weight): 0%
- Blood vessel neointimal layer area /middle layer area (intima/media ratio) ([1]; 60 mg/kg-body weight): 1.3 +/− 0.3
- number of rats with increased neointimal area 0~50,000 μm^2 ([1]; 60 mg/kg-body weight, n = 6): 0
- number of rats with increased neointimal area 50,000~100,000 μm^2 ([1]; 60 mg/kg-body weight, n = 6): 0
- number of rats with increased neointimal area 100,000~150,000 μm^2 ([1]; 60 mg/kg-body weight, n = 6): 4
- number of rats with increased neointimal area Above 150,000 μm^2 ([1]; 60 mg/kg-body weight, n = 6): 2
- proportion of rats with increased neointimal area 100,000~150,000 μm^2 ([1]; 60 mg/kg-body weight, n = 6): 66.7%
- proportion of rats with increased neointimal area Above 150,000 μm^2 ([1]; 60 mg/kg-body weight, n = 6): 33.3%
- inhibition of blood vessel stenosis (in words) ([1]; 150 mg/kg-body weight): significantly be inhibited
- inhibition of blood vessel stenosis compared with the sham group (intima/media ratio) ([1]; 150 mg/kg-body weight): 36.7%
- inhibition of blood vessel stenosis compared with the sham group (neointimal layer area) ([1]; 150 mg/kg-body weight): 36.3%
- proportion of the rats whose increased area of the blood vessel neointimal layer was under 1×10^5 μm^2 ([1]; 150 mg/kg-body weight): 50%
- Blood vessel neointimal layer area /middle layer area (intima/media ratio) ([1]; 150 mg/kg-body weight, P < 0.05): 0.81 +/− 0.14*
- number of rats with increased neointimal area 0~50,000 μm^2 ([1]; 150 mg/kg-body weight, n = 6): 0
- number of rats with increased neointimal area 50,000~100,000 μm^2 ([1]; 150 mg/kg-body weight, n = 6): 3
- number of rats with increased neointimal area 100,000~150,000 μm^2 ([1]; 150 mg/kg-body weight, n = 6): 3
- number of rats with increased neointimal area Above 150,000 μm^2 ([1]; 150 mg/kg-body weight, n = 6): 0
- proportion of rats with increased neointimal area 50,000~100,000 μm^2 ([1]; 150 mg/kg-body weight, n = 6): 50%
- proportion of rats with increased neointimal area 100,000~150,000 μm^2 ([1]; 150 mg/kg-body weight, n = 6): 50%
- inhibition of blood vessel stenosis (in words) ([1]; 300 mg/kg-body weight): significantly be inhibited
- inhibition of blood vessel stenosis compared with the sham group (intima/media ratio) ([1]; 300 mg/kg-body weight): 57.8%
- inhibition of blood vessel stenosis compared with the sham group (neointimal layer area) ([1]; 300 mg/kg-body weight): 56.2%
- proportion of the rats whose increased area of the blood vessel neointimal layer was under 1×10^5 μm^2 ([1]; 300 mg/kg-body weight): 83.3%
- Blood vessel neointimal layer area /middle layer area (intima/media ratio) ([1]; 300 mg/kg-body weight, P < 0.01): 0.54 +/− 0.24**
- number of rats with increased neointimal area 0~50,000 μm^2 ([1]; 300 mg/kg-body weight, n = 6): 2
- number of rats with increased neointimal area 50,000~100,000 μm^2 ([1]; 300 mg/kg-body weight, n = 6): 3
- number of rats with increased neointimal area 100,000~150,000 μm^2 ([1]; 300 mg/kg-body weight, n = 6): 1
- number of rats with increased neointimal area Above 150,000 μm^2 ([1]; 300 mg/kg-body weight, n = 6): 0
- proportion of rats with increased neointimal area 0~50,000 μm^2 ([1]; 300 mg/kg-body weight, n = 6): 33.3%
- proportion of rats with increased neointimal area 50,000~100,000 μm^2 ([1]; 300 mg/kg-body weight, n = 6): 50.0%
- proportion of rats with increased neointimal area 100,000~150,000 μm^2 ([1]; 300 mg/kg-body weight, n = 6): 16.7%
- Blood vessel neointimal layer area ([1]; carotid artery Section A, 60 mg/kg-body weight abdominal injection, days 1,3,5,7,9,11): 164528 +/− 81467 μm^2
- Blood vessel neointimal layer area ([1]; carotid artery Section A, 150 mg/kg-body weight abdominal injection): 75272 +/− 36346 μm^2
- Blood vessel neointimal layer area ([1]; carotid artery Section A, 300 mg/kg-body weight abdominal injection): 53118 +/− 33403 μm^2
- Blood vessel neointimal layer area ([1]; carotid artery Section B, 60 mg/kg-body weight abdominal injection): 168355 +/− 37686 μm^2
- Blood vessel neointimal layer area ([1]; carotid artery Section B, 150 mg/kg-body weight abdominal injection): 119827 +/− 35005 μm^2
- Blood vessel neointimal layer area ([1]; carotid artery Section B, 300 mg/kg-body weight abdominal injection): 76551 +/− 45327 μm^2
- Blood vessel neointimal layer area ([1]; carotid artery Section C, 60 mg/kg-body weight abdominal injection): 138260 +/− 36681 μm^2
- Blood vessel neointimal layer area ([1]; carotid artery Section C, 150 mg/kg-body weight abdominal injection): 93111 +/− 19875 μm^2
- Blood vessel neointimal layer area ([1]; carotid artery Section C, 300 mg/kg-body weight abdominal injection): 61150 +/− 27899 μm^2
- Blood vessel neointimal layer area ([1]; carotid artery Section D, 60 mg/kg-body weight abdominal injection): 130852 +/− 77915 μm^2
- Blood vessel neointimal layer area ([1]; carotid artery Section D, 150 mg/kg-body weight abdominal injection): 85273 +/− 15262 μm^2
- Blood vessel neointimal layer area ([1]; carotid artery Section D, 300 mg/kg-body weight abdominal injection): 66654 +/− 23434 μm^2
- Blood vessel neointimal layer area ([1]; whole carotid artery (Table 4), 60 mg/kg-body weight): 150499 +/− 34951 μm^2
- Blood vessel neointimal layer area ([1]; whole carotid artery (Table 4), 150 mg/kg-body weight, P < 0.01): 93371 +/− 14693 ** μm^2
- Blood vessel neointimal layer area ([1]; whole carotid artery (Table 4), 300 mg/kg-body weight, P < 0.01): 64368 +/− 20641 ** μm^2
- Growth rate ([2]; 25 μg/mL): 0.56 +/− 0.06%
- Growth rate ([2]; 50 μg/mL): 0.32 +/− 0.04%
- Growth rate ([2]; 100 μg/mL): 0.25 +/− 0.03%
- Growth rate ([2]; 150 μg/mL): 0.12 +/− 0.04%
- Growth rate ([2]; 200 μg/mL): 0.10 +/− 0.02%
- inhibition at 25 µg/mL ([2]; Rattus norvegicus, 25 μg/mL, read-out: inhibition rate of smooth muscle cell growth): 43.6%
- IC50 ([2]; Rattus norvegicus, read-out: IC50 of smooth muscle cell growth): 27 µg/mL and 143 µM
- effect on cell cycle of smooth muscle cells (in words) ([3]; 25 and 50 μg/mL): stagnate the smooth muscle cells in the G0/G1 phase
- Ratio of cells in cell cycle phase G0/G1 ([3]; 25 μg/mL): 68.33 +/− 0.05%
- Ratio of cells in cell cycle phase G0/G1 ([3]; 50 μg/mL): 68.9% and 68.86 +/− 5.2%
- Ratio of cells in cell cycle phase G2/M ([3]; 25 μg/mL): 11.3 +/− 1.25%
- Ratio of cells in cell cycle phase G2/M ([3]; 50 μg/mL): 12.1 +/− 1.15%
- Ratio of cells in cell cycle phase S ([3]; 25 μg/mL): 20.33 +/− 2.05%
- Ratio of cells in cell cycle phase S ([3]; 50 μg/mL): 19.0% and 19.00 +/− 4.3%
